Reference: patent publication US11590116B2 (THERAVANCE BIOPHARMA R&D IP, LLC, priority 2019, dated 2023)

Key:
[1] = target: T1, recombinant human ALK5 (TGF-βR1) protein (Homo sapiens, UniProt P36897); test: Biochemical ALK5 (TGF-βR1) assay to measure pKi (LANCE Ultra ULight kinase assay); details: apparent pKi from pIC50 by Cheng-Prusoff, read-out: ALK5 pKi (converted)
T1 construct: purchased Life Technologies PR9075A
T1 sequence (P36897 34-503): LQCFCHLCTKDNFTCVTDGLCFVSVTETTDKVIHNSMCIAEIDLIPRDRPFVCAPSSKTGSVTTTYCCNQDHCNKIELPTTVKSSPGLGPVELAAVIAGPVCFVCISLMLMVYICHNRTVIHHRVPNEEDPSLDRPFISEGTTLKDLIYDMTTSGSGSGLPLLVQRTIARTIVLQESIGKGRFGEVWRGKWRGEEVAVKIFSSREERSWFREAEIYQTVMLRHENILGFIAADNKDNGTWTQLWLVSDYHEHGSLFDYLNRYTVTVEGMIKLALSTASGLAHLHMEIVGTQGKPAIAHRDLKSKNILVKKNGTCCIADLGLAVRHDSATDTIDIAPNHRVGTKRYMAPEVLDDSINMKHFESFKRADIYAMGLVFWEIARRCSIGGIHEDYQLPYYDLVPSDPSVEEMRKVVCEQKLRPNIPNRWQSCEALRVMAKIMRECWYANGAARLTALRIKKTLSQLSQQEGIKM
Outline: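 Compounds (10 μM to 25 pM) preincubated 60 minutes at room temperature with enzyme, then reaction run 60 minutes at 37° C with ATP added as 125 μM (5× final). Stopped with EDTA plus Eu-anti-phospho-Topoisomerase 2-alpha (Thr1342) antibody, TR-FRET read at 665 nm; pIC50 converted to pKi via Cheng-Prusoff.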

[2] = system: TGF-β-stimulated SMAD3 phosphorylation in BEAS-2B cells; test: Cellular ALK5 potency assay, inhibition of TGF-β stimulated pSMAD3 formation in BEAS-2B cells; assay type: cell-based; details: Homo sapiens; inhibition of TGF-β stimulated pSMAD3 formation, BEAS-2B cells; read-out: BEAS2B pIC50 (converted)
Outline: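 AlphaLISA pSMAD3 read-out, beads incubated overnight. Human BEAS-2B cells: 1 h compound preincubation (37 °C, 5% CO2), then 30 min TGF-β at 10 ng/mL final, immediate lysis. Values are pIC50 relative to stimulated, compound-free baseline.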

Q: For CN[C@H]1CC[C@H](OC(=O)c2cnc3ccc(-c4cn[nH]c4-c4cccc(C)n4)cc3c2)CC1 [Compound 1221, [4-(methylamino)cyclohexyl] 6-[5-(6-methyl-2-pyridyl)-1H-pyrazol-4-yl]quinoline-3-carboxylate], which Ki [1] is on record?
A: Its Ki is 0.0398 to 0.316 nM.

Q: What about the IC50 [2] of the same molecule?
A: Its IC50 is less than 20 nM.

Q: Which Ki [1] does the source give for Cc1cccc(-c2[nH]cnc2-c2ccc3ncc(-c4csc(C(=O)OCCN5C[C@@H](C)N[C@@H](C)C5)c4)cc3c2)n1 [Compound 1222, 2-[(3S,5R)-3,5-dimethylpiperazin-1-yl]ethyl 4-[6-[5-(6-methyl-2-pyridyl)-1H-imidazol-4-yl]-3-quinolyl]thiophene-2-carboxylate] here?
A: Its Ki is 0.0398 to 0.316 nM.

Q: What about the IC50 [2] of the same molecule?
A: The IC50 was 25.1 to 158 nM.

Q: Which Ki [1] does the source give for Cc1cccc(-c2[nH]ncc2-c2ccc3nccc(C(=O)OC[C@H]4CCCN4)c3c2)n1 [Compound 1223, [(2R)-pyrrolidin-2-yl]methyl 6-[5-(6-methyl-2-pyridyl)-1H-pyrazol-4-yl]quinoline-4-carboxylate] here?
A: The Ki was 3.98 to 31.6 nM.

Q: What about the IC50 [2] of the same molecule?
A: Its IC50 is 25.1 to 158 nM.

Q: How did the Ki [1] turn out when Cc1cccc(-c2[nH]cnc2-c2ccc3ncc(-c4ccc(C(=O)OC[C@H]5CCCNC5)cn4)cc3c2)n1 [Compound 1224, [(3S)-3-piperidyl]methyl 6-[6-[5-(6-methyl-2-pyridyl)-1H-imidazol-4-yl]-3-quinolyl]pyridine-3-carboxylate] was run?
A: The Ki was 0.0398 to 0.316 nM.

Q: And the IC50 [2]?
A: Its IC50 is 25.1 to 158 nM.

Q: Which Ki [1] does the source give for Cc1cccc(-c2[nH]ncc2-c2ccc3nccc(C(=O)OCC4CCNCC4)c3c2)n1 [Compound 1225, 4-piperidylmethyl 6-[5-(6-methyl-2-pyridyl)-1H-pyrazol-4-yl]quinoline-4-carboxylate] here?
A: The Ki was 0.0398 to 0.316 nM.

Q: And the IC50 [2]?
A: The IC50 was 25.1 to 158 nM.

Q: How did the Ki [1] turn out when Cc1cccc(-c2[nH]cnc2-c2ccc3ncc(-c4nc(C(=O)OCCN5C[C@@H](C)N[C@@H](C)C5)cs4)cc3c2)n1 [Compound 1226, 2-[(3R,5S)-3,5-dimethylpiperazin-1-yl]ethyl 2-[6-[5-(6-methyl-2-pyridyl)-1H-imidazol-4-yl]-3-quinolyl]thiazole-4-carboxylate] was run?
A: Its Ki is 0.0398 to 0.316 nM.

Q: And the IC50 [2]?
A: The IC50 was 25.1 to 158 nM.

Q: How did the Ki [1] turn out when Cc1cccc(-c2[nH]ncc2-c2ccc3ncc(C(=O)O[C@H]4CC[C@@H](N)CC4)cc3c2)n1 [Compound 1228, (4-aminocyclohexyl) 6-[5-(6-methyl-2-pyridyl)-1H-pyrazol-4-yl]quinoline-3-carboxylate] was run?
A: Its Ki is 0.0398 to 0.316 nM.

Q: And the IC50 [2]?
A: Its IC50 is 25.1 to 158 nM.

Q: COC(=O)CNc1cnc2ccc(-c3nc[nH]c3-c3cccc(C)n3)cc2c1 [Compound 1229, methyl 2-[[6-[5-(6-methyl-2-pyridyl)-1H-imidazol-4-yl]-3-quinolyl]amino]acetate] was tested. Which Ki [1] did it give?
A: Its Ki is 0.0398 to 0.316 nM.

Q: What about the IC50 [2] of the same molecule?
A: Its IC50 is 25.1 to 158 nM.

Q: Which results are given for Cc1cccc(-c2[nH]ncc2-c2ccc3ncc(C(=O)OC[C@H]4CCCNC4)cc3c2)n1 [Compound 1230, [(3S)-3-piperidyl]methyl 6-[5-(6-methyl-2-pyridyl)-1H-pyrazol-4-yl]quinoline-3-carboxylate]?
A: Ki [1]: 0.0398 to 0.316 nM; IC50 [2]: 25.1 to 158 nM

Q: How did the Ki [1] turn out when Cc1cccc(-c2[nH]cnc2-c2ccc3ncc(-c4csc(C(=O)O[C@H]5CC[C@@](C)(N)CC5)c4)cc3c2)n1 [Compound 1232, (4-amino-4-methyl-cyclohexyl) 4-[6-[5-(6-methyl-2-pyridyl)-1H-imidazol-4-yl]-3-quinolyl]thiophene-2-carboxylate] was run?
A: The Ki was less than 0.0316 nM.

Q: What about the IC50 [2] of the same molecule?
A: Its IC50 is 25.1 to 158 nM.

Q: How did the Ki [1] turn out when Cc1cccc(-c2[nH]ncc2-c2ccc3nccc(C(=O)OC[C@@H]4CCCN4)c3c2)n1 [Compound 1233, [(2S)-pyrrolidin-2-yl]methyl 6-[5-(6-methyl-2-pyridyl)-1H-pyrazol-4-yl]quinoline-4-carboxylate] was run?
A: The Ki was 0.0398 to 0.316 nM.

Q: What about the IC50 [2] of the same molecule?
A: Its IC50 is 25.1 to 158 nM.

Q: Cc1cccc(-c2[nH]ncc2-c2ccc3ncc(C(=O)OCCN4CCN5CCCC5C4)cc3c2)n1 (stereo not drawn) [Compound 1234, 2-(3,4,6,7,8,8a-hexahydro-1H-pyrrolo[1,2-a]pyrazin-2-yl)ethyl 6-[5-(6-methyl-2-pyridyl)-1H-pyrazol-4-yl]quinoline-3-carboxylate] was tested. Which Ki [1] did it give?
A: Its Ki is 0.0398 to 0.316 nM.

Q: What about the IC50 [2] of the same molecule?
A: Its IC50 is 25.1 to 158 nM.

Q: Which Ki [1] does the source give for Cc1cccc(-c2[nH]cnc2-c2ccc3ncc(-c4csc(C(=O)OCCNC5CNC5)c4)cc3c2)n1 [Compound 1235, 2-(azetidin-3-ylamino)ethyl 4-[6-[5-(6-methyl-2-pyridyl)-1H-imidazol-4-yl]-3-quinolyl]thiophene-2-carboxylate] here?
A: Its Ki is 0.0398 to 0.316 nM.

Q: And the IC50 [2]?
A: Its IC50 is 25.1 to 158 nM.

Q: With Cc1cccc(-c2[nH]cnc2-c2ccc3ncc(-c4ncc(C(=O)OCC5CNC5)s4)cc3c2)n1 [Compound 1236, azetidin-3-ylmethyl 2-[6-[5-(6-methyl-2-pyridyl)-1H-imidazol-4-yl]-3-quinolyl]thiazole-5-carboxylate] as the molecule, how does the Ki [1] read?
A: Its Ki is 0.0398 to 0.316 nM.

Q: And the IC50 [2]?
A: Its IC50 is 25.1 to 158 nM.

Q: Which Ki [1] does the source give for Cc1cccc(-c2[nH]ncc2-c2ccc3nccc(C(=O)OC4CNC4)c3c2)n1 [Compound 1237, azetidin-3-yl 6-[5-(6-methyl-2-pyridyl)-1H-pyrazol-4-yl]quinoline-4-carboxylate] here?
A: The Ki was 0.0398 to 0.316 nM.

Q: And the IC50 [2]?
A: The IC50 was 25.1 to 158 nM.

Q: For Cc1cccc(-c2[nH]ncc2-c2ccc3ncc(C(=O)OCCN4C[C@@H](C)N[C@@H](C)C4)cc3c2)n1 [Compound 1238, 2-[(3S,5R)-3,5-dimethylpiperazin-1-yl]ethyl 6-[5-(6-methyl-2-pyridyl)-1H-pyrazol-4-yl]quinoline-3-carboxylate], which Ki [1] is on record?
A: The Ki was 0.0398 to 0.316 nM.

Q: And the IC50 [2]?
A: Its IC50 is 25.1 to 158 nM.

Q: Cc1cccc(-c2[nH]ncc2-c2ccc3ncc(C(=O)OCCN4CCC[C@@H](N)C4)cc3c2)n1 [Compound 1241, 2-[(3R)-3-amino-1-piperidyl]ethyl 6-[5-(6-methyl-2-pyridyl)-1H-pyrazol-4-yl]quinoline-3-carboxylate] was tested. Which Ki [1] did it give?
A: Its Ki is 0.0398 to 0.316 nM.

Q: And the IC50 [2]?
A: The IC50 was 25.1 to 158 nM.

Q: How did the Ki [1] turn out when Cc1cccc(-c2[nH]cnc2-c2ccc3ncc(-c4csc(C(=O)OCCN5CCNCC5)c4)cc3c2)n1 [Compound 1242, 2-piperazin-1-ylethyl 4-[6-[5-(6-methyl-2-pyridyl)-1H-imidazol-4-yl]-3-quinolyl]thiophene-2-carboxylate] was run?
A: The Ki was less than 0.0316 nM.

Q: And the IC50 [2]?
A: Its IC50 is 25.1 to 158 nM.

Q: Which results are given for Cc1cccc(-c2[nH]cnc2-c2ccc3ncc(-c4csc(C(=O)O[C@H]5C[C@@H](N)C5)c4)cc3c2)n1 [Compound 1243, (3-aminocyclobutyl) 4-[6-[5-(6-methyl-2-pyridyl)-1H-imidazol-4-yl]-3-quinolyl]thiophene-2-carboxylate]?
A: Ki [1]: < 0.0316 nM; IC50 [2]: 25.1 to 158 nM

Q: Which Ki [1] does the source give for Cc1cccc(-c2[nH]cnc2-c2ccc3ncc(-c4ccc(C(=O)OC[C@H]5CCCCN5)cn4)cc3c2)n1 [Compound 1244, [(2R)-2-piperidyl]methyl 6-[6-[5-(6-methyl-2-pyridyl)-1H-imidazol-4-yl]-3-quinolyl]pyridine-3-carboxylate] here?
A: Its Ki is 0.0398 to 0.316 nM.

Q: And the IC50 [2]?
A: Its IC50 is 25.1 to 158 nM.

Q: Which Ki [1] does the source give for Cc1cccc(-c2[nH]cnc2-c2ccc3ncc(-c4nc(C(=O)OCCN5CC[C@@H](N)C5)cs4)cc3c2)n1 [Compound 1246, 2-[(3R)-3-aminopyrrolidin-1-yl]ethyl 2-[6-[5-(6-methyl-2-pyridyl)-1H-imidazol-4-yl]-3-quinolyl]thiazole-4-carboxylate] here?
A: Its Ki is 0.0398 to 0.316 nM.

Q: What about the IC50 [2] of the same molecule?
A: The IC50 was 200 to 1260 nM.

Q: Cc1cccc(-c2[nH]cnc2-c2ccc3ncc(-c4csc(C(=O)OCCN5CCC[C@H](N)C5)c4)cc3c2)n1 [Compound 1250, 2-[(3S)-3-amino-1-piperidyl]ethyl 4-[6-[5-(6-methyl-2-pyridyl)-1H-imidazol-4-yl]-3-quinolyl]thiophene-2-carboxylate] was tested. Which Ki [1] did it give?
A: The Ki was 0.398 to 3.16 nM.

Q: What about the IC50 [2] of the same molecule?
A: The IC50 was 25.1 to 158 nM.

Q: Which Ki [1] does the source give for COc1nc(-c2ccc3ncc(C4=CCC5(CCNCC5)CC4)cc3c2)c(-c2cccc(C)n2)[nH]1 [Compound 1251, 9-[6-[2-methoxy-5-(6-methyl-2-pyridyl)-1H-imidazol-4-yl]-3-quinolyl]-3-azaspiro[5.5]undec-9-ene] here?
A: Its Ki is less than 0.0316 nM.

Q: What about the IC50 [2] of the same molecule?
A: Its IC50 is 25.1 to 158 nM.

Q: How did the Ki [1] turn out when Cc1cccc(-c2[nH]cnc2-c2ccc3ncc(-c4nc(C(=O)OCCN5CCC[C@@H](N)C5)cs4)cc3c2)n1 [Compound 1252, 2-[(3R)-3-amino-1-piperidyl]ethyl 2-[6-[5-(6-methyl-2-pyridyl)-1H-imidazol-4-yl]-3-quinolyl]thiazole-4-carboxylate] was run?
A: The Ki was 0.0398 to 0.316 nM.

Q: And the IC50 [2]?
A: Its IC50 is 25.1 to 158 nM.

Q: For Cc1cccc(-c2[nH]cnc2-c2ccc3ncc(-c4csc(C(=O)OC[C@H]5CCCNC5)c4)cc3c2)n1 [Compound 1253, [(3S)-3-piperidyl]methyl 4-[6-[5-(6-methyl-2-pyridyl)-1H-imidazol-4-yl]-3-quinolyl]thiophene-2-carboxylate], which Ki [1] is on record?
A: The Ki was less than 0.0316 nM.

Q: And the IC50 [2]?
A: The IC50 was 25.1 to 158 nM.

Q: Which results are given for Cc1cccc(-c2[nH]cnc2-c2ccc3ncc(-c4nc(C(=O)OCCNC5CNC5)cs4)cc3c2)n1 [Compound 1254, 2-(azetidin-3-ylamino)ethyl 2-[6-[5-(6-methyl-2-pyridyl)-1H-imidazol-4-yl]-3-quinolyl]thiazole-4-carboxylate]?
A: Ki [1]: < 0.0316 nM; IC50 [2]: 200 to 1260 nM

Q: How did the Ki [1] turn out when Cc1cccc(-c2[nH]ncc2-c2ccc3ncc(C(=O)OCCC4CCNCC4)cc3c2)n1 [Compound 1255, 2-(4-piperidyl)ethyl 6-[5-(6-methyl-2-pyridyl)-1H-pyrazol-4-yl]quinoline-3-carboxylate] was run?
A: Its Ki is 0.0398 to 0.316 nM.

Q: And the IC50 [2]?
A: Its IC50 is 25.1 to 158 nM.
